Measurements from patent publication US8524738B2, “Quinolinones and quinoxalinones as antibacterial composition” (Toyama Chemical Co., Ltd., priority 2005, dated 2013).
≈ marks a conversion by molar mass, not a printed value. Counter-ions that a name gives are not always drawn. Like-named read-outs stand apart in the source and are kept apart here.

What was measured:
[1] = system: Staphylococcus aureus (S. aureus FDA209P); experiment: Sensitivity Test 1: antibacterial activity (MIC) by micro-dilution method; type: cell-based
Experimental: (§1) Test compounds were initially dissolved in dimethylsulfoxide. Antibacterial activities (MICs) of the same compounds were determined by the micro-dilution method as recommended by the Japanese Society of Chemotherapy.
(§2) Staphylococcus aureus (S. aureus FDA209P) was used as the test organism. The bacterial cells were grown overnight at 35° C. on Mueller-Hinton agar (MHA) plates. The bacterial cells were then suspended in sterile saline and adjusted to the turbidity of a 0.5 McFarland standard. The inoculum was prepared by 10-fold dilution of this suspension. Approximately 0.005 mL aliquots of the inoculum prepared above were subsequently inoculated into Cation-adjusted Mueller-Hinton broth (CAMHB, 100 μL/well) including the test compounds for overnight incubation at 35° C.

[2] = system: Vero cells; experiment: Cytotoxicity Test (XTT) on Vero cells; type: cell-based; conditions: 51.2 μg/mL of test compound, 3 days at 37° C., XTT absorbance ratio of treated to untreated well
Experimental: Test compounds were initially dissolved in dimethylsulfoxide. […]. After incubation, absorbance was read at 450 nm and 655 nm in a spectrophotometric microplate reader. The values were expressed as the ratio between the value for the well treated with 51.2 μg/mL of each test compound and the value for the well untreated with the test compound (T/C).

[3] = system: Methicillin-resistant Staphylococcus aureus (S. aureus F-3095); experiment: Sensitivity Test 2: antibacterial activity (MIC) by micro-dilution method; type: cell-based
Experimental: as §1, §2
Methicillin-resistant Staphylococcus aureus (S. aureus F-3095) was used as the test organism. Antibacterial activities (MICs) were determined in the same manner as in Test Example 1.

[4] = system: S. aureus Smith; experiment: Infection Test: mice infected intraperitoneally with S. aureus Smith; type: in vivo; conditions: ICR mice, 5 per group; S. aureus Smith i.p.; 10 mg/kg subcutaneously once at 1 hour after infection; survivors recorded 3 days after infection
Experimental: S. aureus Smith which was grown overnight at 37° C. on Mueller-Hinton agar (MHA) plates were suspended to give a final concentration of 10^9 CFU/mL. The inoculum was prepared by diluting this suspension 10-fold in 1/15 mol/L phosphate buffer (pH 7) containing 5.6% mucin. ICR mice (4 to 4.5 weeks of age, male, 5 mice per group) were intraperitoneally administered with the inoculum (approximately 2×10^7 CFU per mice) to induce infection.
After dissolving the test compounds in 0.1 mol/L hydrochloric acid, 20% 2-hydroxypropyl-β-cyclodextrin (HP-β-CD) or a mixture of 20% HP-β-CD and 0.1 mol/L hydrochloric acid at a proportion of 1:1 was added to give a final concentration of 1 mg/mL. Each of the test compound solutions (10 mg/kg) was subcutaneously administered once to a group of mice at 1 hour after infection. The control group was administered with 10% HP-β-CD. The mice were observed daily and the number of surviving mice in each group was recorded 3 days after infection.

[5] = S. aureus FDA209P, CAMHB, overnight incubation at 35° C., lowest concentration with virtually no growth, read-out: MIC
[6] = Methicillin-resistant S. aureus F-3095, same manner as in Test Example 1, read-out: MIC

SMILES	MIC [1, 5] [µg/mL]	MIC ([1]; FDA209P) [µg/mL]	also measured
COc1ccc2c(C)cc(=O)n(CCCC3(C(=O)O)CCN(CCSc4cccs4)CC3)c2c1 [Example 7, 4-(3-(7-methoxy-4-methyl-2-oxoquinolin-1(2H)-yl)propyl)-1-(2-(2-thienylthio)ethyl)piperidine-4-carboxylic acid]	0.25 (≈ 0.499 µM)	–	T/C [2]: >50%
COc1ccc2ncc(=O)n(CCN3CCC(NCc4ccc5c(c4)NC(=O)CO5)CC3)c2c1 [Example 90, 6-(((1-(2-(7-methoxy-2-oxoquinoxaline-1-(2H)-yl)ethyl)piperidin-4-yl)amino)methyl)-2H-1,4-benzooxazine-3(4H)-one]	0.0313 (≈ 0.0675 µM)	–	MIC [3, 6]: 0.0625 µg/mL (≈ 0.135 µM); Number of surviving mice [4]: 5; T/C [2]: >50%
O=c1ccc2ccccc2n1CCN1CCC(NCc2ccc3c(c2)OCCO3)CC1 [Example 63, 1-(2-(4-(2,3-dihydro-1,4-benzodioxin-6-ylmethyl)amino)piperidin-1-yl)ethyl)-quinolin-2(1H)one hydrochloride]	0.0625	–	T/C [2]: >50%
COc1ccc2ncc(=O)n(CCC3(O)CCC(NCc4cc5c(cn4)OCCO5)CC3)c2c1 (single isomer, unassigned) [389(B), 1-(2-(4-((2,3-dihydro(1,4)dioxino(2,3-c)pyridin-7-ylmethyl)amino)-1-hydroxycyclohexyl)ethyl)-7-methoxyquinoxalin-2(1H)-one]	0.0156 (≈ 0.0334 µM)	–	MIC [3, 6]: 0.0625 µg/mL (≈ 0.134 µM); T/C [2]: >50%
COc1ccc2ccc(=O)n(CCN3CCC(NCc4cc5c(cn4)OCCO5)CC3)c2c1 [Example 64, 1-(2-(4-((2,3-dihydro(1,4)dioxino(2,3-c)pyridin-7-ylmethyl)amino)piperidin-1-yl)ethyl)-7-methoxyquinolin-2(1H)-one]	0.0156 (≈ 0.0346 µM)	–	MIC [3, 6]: 0.0156 µg/mL (≈ 0.0346 µM)
Cc1cc(=O)n(CCN2CCC(NCc3ccc4c(c3)OCCO4)CC2)c2cc(OC(F)F)ccc12 [Example 127, 7-(difluoromethoxy)-1-(2-(4-((2,3-dihydro-1,4-benzodioxin-6-ylmethyl)amino)piperidin-1-yl)ethyl)-4-methylquinolin-2(1H)-one hydrochloride]	–	0.0625	–
COc1ccc2ncc(=O)n(CCN3CCC(NCc4ccc5c(n4)NC(=O)CS5)CC3)c2c1 [Example 179, 6-(((1-(2-(7-methoxy-2-oxoquinoxalin-1(2H)-yl)ethyl)piperidin-4-yl)amino)methyl)-2H-pyrido(3,2-b)(1,4)thiazin-3(4H)-one]	0.0156 (≈ 0.0325 µM)	–	MIC [3, 6]: 0.0313 µg/mL (≈ 0.0651 µM); Number of surviving mice [4]: 5
COc1ccc2ncc(=O)n(CCN3CCC(NCc4ccc(C)c(F)c4)CC3)c2c1 [Example 354, 1-(2-(4-(3-fluoro-4-methylbenzylamino)piperidin-1-yl)ethyl)-7-methoxyquinoxalin-2(1H)-one hydrochloride]	–	0.0078	–
COc1ccc2c(C)cc(=O)n(CCN3CCC(NCc4ccc5c(c4)OCCO5)CC3)c2c1 [Example 2, 1-(2-(4-((2,3-dihydro-1,4-benzodioxin-6-ylmethyl)amino)piperidin-1-yl)ethyl)-7-methoxy-4-methylquinolin-2(1H)-one]	0.0313 (≈ 0.0675 µM)	–	MIC [3]: 0.0313 µg/mL (≈ 0.0675 µM); Number of surviving mice [4]: 4
COc1ccc2ccc(=O)n(CCN3CCC(NC(=O)c4ccc5c(c4)OCCO5)CC3)c2c1 [Example 36, N-(1-(2-(7-methoxy-2-oxoquinolin-1(2H)-yl)ethyl)piperidin-4-yl)-2,3-dihydro-1,4-benzodioxin-6-carboxamide]	0.125 (≈ 0.27 µM)	–	–
COc1ccc2c(C)cc(=O)n(CCN3CCC(NCCCc4ccccc4)CC3)c2c1 [Example 39, 7-methoxy-4-methyl-1-(2-(4-((3-phenylpropyl)amino)piperidin-1-yl)ethyl)quinolin-2(1H)-one]	0.0625 (≈ 0.144 µM)	–	–
Cc1cc(=O)n(CCN2CCC(NCc3ccc4c(c3)OCCO4)CC2)c2cc(F)ccc12 [Example 109, 1-(2-(4-((2,3-dihydro-1,4-benzodioxin-6-ylmethyl)amino)piperidin-1-yl)ethyl)-7-fluoro-4-methylquinolin-2(1H)-one hydrochloride]	–	0.125	–
O=c1cnc2ccc(F)cc2n1CCN1CCC(NCc2ccc3c(c2)OCCO3)CC1 [Example 346, (1-(2-(4-((2,3-dihydro-1,4-benzodioxin-6-ylmethyl)amino)piperidin-1-yl)ethyl)-7-fluoroquinoxalin-2(1H)-one hydrochloride]	0.0156	–	–
COc1ccc2c(C)cc(=O)n(CCN3CCN(CCc4ccc5c(c4)OCCO5)C(C(=O)O)C3)c2c1 (centres unmarked) [Example 53, 1-(2-(2,3-dihydro-1,4-benzodioxin-6-yl)ethyl)-4-(2-(7-methoxy-4-methyl-2-oxoquinolin-1(2H)-yl)ethyl)piperazine-2-carboxylic acid]	1 (≈ 1.97 µM)	–	–
COc1cc(CO)c2ccc(=O)n(CCN3CCC(NCc4ccc5c(c4)OCCO5)CC3)c2c1 [Example 189, 1-(2-(4-((2,3-dihydro-1,4-benzodioxin-6-ylmethyl)amino)piperidin-1-yl)ethyl)-5-hydroxymethyl-7-methoxyquinolin-2(1H)-one hydrochloride]	–	0.0625	–
COc1ccc2ncc(=O)n(CCN3CCC(NCc4ccc5c(c4)NC(=O)CS5)CC3)c2c1 [Example 91, 6-(((1-(2-(7-methoxy-2-oxoquinoxaline-1-(2H)-yl)ethyl)piperidin-4-yl)amino)methyl)-2H-1,4-benzothiazine-3(4H)-one]	0.0313 (≈ 0.0653 µM)	–	MIC [3, 6]: 0.0313 µg/mL (≈ 0.0653 µM); Number of surviving mice [4]: 5
CCc1ccc(CNC2CCN(CCn3c(=O)cc(C(=O)NC)c4ccc(OC)cc43)CC2)cc1 [Example 339, 1-(2-(4-(4-ethylbenzylamino)piperidin-1-yl)ethyl)-7-methoxy-N-methyl-2-oxo-1,2-dihydroquinoline-4-carboxamide hydrochloride]	–	0.0625	–
COc1ccc2ncc(=O)n(CCN3CCC(NCc4cc5sccc5s4)CC3)c2c1 [Example 360, 1-(2-(4-(((thieno[3,2-b]thiophen-2-yl)methylamino)piperidin-1-yl)ethyl)-7-methoxyquinoxalin-2(1H)-one hydrochloride]	0.0078	–	–
O=c1cnc2ccc(Br)cc2n1CCN1CCC(NCc2ccc3c(c2)OCCO3)CC1 [Example 363, 1-(2-(4-((2,3-dihydro-1,4-benzodioxin-6-ylmethyl)amino)piperidin-1-yl)ethyl)-7-bromoquinoxalin-2(1H)-one hydrochloride]	–	0.0313	–
COc1ccc2ncc(=O)n(CCN3CCC(NCc4ccc5c(c4)OCCO5)CC3)c2c1 [Example 117, 1-(2-(4-((2,3-dihydro-1,4-benzodioxin-6-ylmethyl)amino)piperidin-1-yl)ethyl)-7-methoxyquinoxalin-2(1H)-one hydrochloride]	–	0.0313	MIC [3]: 0.0313 µg/mL; Number of surviving mice [4]: 5
COc1ccc2ncc(=O)n(CCN3CCC(NCc4ccc5c(n4)NC(=O)CO5)CC3)c2c1 [Example 400, 7-methoxy-1-(2-(4-((3-oxo-3,4-dihydro-2H-pyrido[3,2-b][1,4]oxazin-6-yl)methylamino)piperidin-1-yl)ethyl)quinoxalin-2(1H)-one hydrochloride]	–	0.0156	–
COc1ccc2c(C(=O)NC3CC3)cc(=O)n(CCN3CCC(NCc4ccc5c(c4)OCCO5)CC3)c2c1 [Example 79, N-cyclopropyl-1-(2-(4-((2,3-dihydro-1,4-benzodioxin-6-ylmethyl)amino)piperidin-1-yl)ethyl)-7-methoxy-2-oxo-1,2-dihydroquinoline-4-carboxamide]	0.0625 (≈ 0.117 µM)	–	–
